Data as given in US5843900A (priority 1995, dated 1998).
Square brackets hold non-standard residues; d marks the D form. Peptide text beside a SMILES is read from it. * marks the point of attachment. X21 = CN1CC[C@]23c4c5ccc(OCCCCCCCCCCCC(=O)*)c4O[C@H]2[C@@H](O)CC[C@H]3[C@H]1C5; Hyp = O=C(O)[C@@H]1C[C@@H](O)CN1; dTic = O=C(O)[C@H]1Cc2ccccc2CN1; 2Thi = N[C@@H](Cc1cccs1)C(=O)O; Gly(N-cHex) = O=C(O)CNC1CCCCC1

Key:
[1] = target: human BK2 receptor (Homo sapiens, UniProt P30411); assay: biochemical; format: binding
human BK2 receptor, sequence (P30411 28-391): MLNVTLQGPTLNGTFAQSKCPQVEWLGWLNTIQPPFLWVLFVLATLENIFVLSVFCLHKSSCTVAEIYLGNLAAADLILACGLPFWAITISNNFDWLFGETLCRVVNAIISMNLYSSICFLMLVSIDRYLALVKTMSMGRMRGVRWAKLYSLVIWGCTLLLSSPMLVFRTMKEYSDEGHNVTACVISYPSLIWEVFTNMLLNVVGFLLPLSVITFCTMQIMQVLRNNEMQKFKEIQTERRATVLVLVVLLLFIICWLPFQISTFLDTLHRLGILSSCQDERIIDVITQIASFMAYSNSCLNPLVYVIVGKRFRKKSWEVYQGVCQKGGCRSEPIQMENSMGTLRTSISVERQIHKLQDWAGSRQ

[2] = test system: paw licking following formalin injection; conditions: mouse, in vivo
[3] = test system: carrageenan induced edema in the rat hind paw; conditions: in vivo
[4] = test system: mustard oil induced neurogenic inflammation in the rat hind paw; conditions: in vivo
[5] = test system: hypotensive response to bradykinin; assay: Rat Blood Pressure: hypotensive response to bradykinin; format: in vivo; conditions: at the dose used in the carrageenan test
Procedure: Male rats were anesthetised with urethane, 1.25 g/kg, and cannulae were placed in the carotid artery and femoral vein for the injection and infusion of compounds and in the femoral artery for the recording of blood pressure. Standard hypotensive responses were obtained to repeated administration of bradykinin, 80 pM. These were repeated in the presence of increasing dose infusions of CP-0840. […] The selectivity of CP-0840 was assessed at a dose of 3 ug/kg/min. […] CP-0840 can be said to be a selective antagonist of bradykinin in vivo in the rat blood pressure assay (FIG. 9).

Molecule	IC50 [1] [nM]	further results
CN1CC[C@]23c4c5ccc(OCCCCCCCCCCCC(=O)NCCCC[C@H](NC(=O)[C@H](CCCNC(=N)N)NC(=O)[C@H](N)CCCNC(=N)N)C(=O)N6C[C@H](O)C[C@H]6C(=O)NCC(=O)N[C@@H](Cc6cccs6)C(=O)N[C@@H](CO)C(=O)N6Cc7ccccc7C[C@@H]6C(=O)N(CC(=O)N[C@@H](CCCNC(=N)N)C(=O)O)C6CCCCC6)c4O[C@H]2[C@@H](O)CC[C@H]3[C@H]1C5 [CP 851] (H-[dR]RK(X21)[Hyp]G[2Thi]S[dTic][Gly(N-cHex)]R-OH)	39.8	
CN1CC[C@]23c4c5ccc(OCCCCCCCCCCCC(=O)N[C@H](CCCNC(=N)N)C(=O)N[C@@H](CCCNC(=N)N)C(=O)N6CCC[C@H]6C(=O)N6C[C@H](O)C[C@H]6C(=O)NCC(=O)N[C@@H](Cc6cccs6)C(=O)N[C@@H](CO)C(=O)N6Cc7ccccc7C[C@@H]6C(=O)N(CC(=O)N[C@@H](CCCNC(=N)N)C(=O)O)C6CCCCC6)c4O[C@H]2[C@@H](O)CC[C@H]3[C@H]1C5 [CP 695]	1.26	
CN1CC[C@]23c4c5ccc(OCCCCCCCCCCCC(=O)NCCCC[C@H](NC(=O)[C@@H]6C[C@@H](O)CN6C(=O)[C@@H]6CCCN6C(=O)[C@H](CCCNC(=N)N)NC(=O)[C@H](N)CCCNC(=N)N)C(=O)N[C@@H](Cc6cccs6)C(=O)N[C@@H](CO)C(=O)N6Cc7ccccc7C[C@@H]6C(=O)N(CC(=O)N[C@@H](CCCNC(=N)N)C(=O)O)C6CCCCC6)c4O[C@H]2[C@@H](O)CC[C@H]3[C@H]1C5 [CP 853] (H-[dR]RP[Hyp]K(X21)[2Thi]S[dTic][Gly(N-cHex)]R-OH)	63.1	
CN1CC[C@]23c4c5ccc(OCCCCCCCCCCCCCCC(=O)N[C@H](CCCNC(=N)N)C(=O)N[C@@H](CCCNC(=N)N)C(=O)N6CCC[C@H]6C(=O)N6C[C@H](O)C[C@H]6C(=O)NCC(=O)N[C@@H](Cc6cccs6)C(=O)N[C@@H](CO)C(=O)N6Cc7ccccc7C[C@@H]6C(=O)N(CC(=O)N[C@@H](CCCNC(=N)N)C(=O)O)C6CCCCC6)c4O[C@H]2[C@@H](O)CC[C@H]3[C@H]1C5 [CP 844]	3.16	
CN1CC[C@]23c4c5ccc(OCCCCCCCCCCCC(=O)NCCCC[C@H](NC(=O)[C@@H]6CCCN6C(=O)[C@H](CCCNC(=N)N)NC(=O)[C@H](N)CCCNC(=N)N)C(=O)NCC(=O)N[C@@H](Cc6cccs6)C(=O)N[C@@H](CO)C(=O)N6Cc7ccccc7C[C@@H]6C(=O)N(CC(=O)N[C@@H](CCCNC(=N)N)C(=O)O)C6CCCCC6)c4O[C@H]2[C@@H](O)CC[C@H]3[C@H]1C5 [CP 841] (H-[dR]RPK(X21)G[2Thi]S[dTic][Gly(N-cHex)]R-OH)	12.6	
CN1CC[C@]23c4c5ccc(O)c4O[C@H]2[C@@H](OCCCCCC(=O)N[C@H](CCCNC(=N)N)C(=O)N[C@@H](CCCNC(=N)N)C(=O)N2CCC[C@H]2C(=O)N2C[C@H](O)C[C@H]2C(=O)NCC(=O)N[C@@H](Cc2cccs2)C(=O)N[C@@H](CO)C(=O)N2Cc4ccccc4C[C@@H]2C(=O)N(CC(=O)N[C@@H](CCCNC(=N)N)C(=O)O)C2CCCCC2)CC[C@H]3[C@H]1C5 [CP 900]	1.58	
CN1CC[C@]23c4c5ccc(OCc6cccc(C(=O)NCCC(=O)Nc7ccc(CC(=O)N[C@H](CCCNC(=N)N)C(=O)N[C@@H](CCCNC(=N)N)C(=O)N8CCC[C@H]8C(=O)N8C[C@H](O)C[C@H]8C(=O)NCC(=O)N[C@@H](Cc8cccs8)C(=O)N[C@@H](CO)C(=O)N8Cc9ccccc9C[C@@H]8C(=O)N(CC(=O)N[C@@H](CCCNC(=N)N)C(=O)O)C8CCCCC8)cc7)c6)c4O[C@H]2[C@@H](O)C=C[C@H]3[C@H]1C5 [CP 862]	1	
CN1CC[C@]23c4c5ccc(O)c4O[C@H]2[C@@H](OCc2ccc(C(=O)N[C@H](CCCNC(=N)N)C(=O)N[C@@H](CCCNC(=N)N)C(=O)N4CCC[C@H]4C(=O)N4C[C@H](O)C[C@H]4C(=O)NCC(=O)N[C@@H](Cc4cccs4)C(=O)N[C@@H](CO)C(=O)N4Cc6ccccc6C[C@@H]4C(=O)N(CC(=O)N[C@@H](CCCNC(=N)N)C(=O)O)C4CCCCC4)cc2)C=C[C@H]3[C@H]1C5 [CP 906]	0.501	
CN1CC[C@]23c4c5ccc(O)c4O[C@H]2[C@@H](OCCCc2cccc(C(=O)N[C@H](CCCNC(=N)N)C(=O)N[C@@H](CCCNC(=N)N)C(=O)N4CCC[C@H]4C(=O)N4C[C@H](O)C[C@H]4C(=O)NCC(=O)N[C@@H](Cc4cccs4)C(=O)N[C@@H](CO)C(=O)N4Cc6ccccc6C[C@@H]4C(=O)N(CC(=O)N[C@@H](CCCNC(=N)N)C(=O)O)C4CCCCC4)c2)C=C[C@H]3[C@H]1C5 [CP 902]	0.398	
CN1CC[C@]23c4c5ccc(OCc6ccc(C(=O)NCCC(=O)Nc7ccc(CC(=O)N[C@H](CCCNC(=N)N)C(=O)N[C@@H](CCCNC(=N)N)C(=O)N8CCC[C@H]8C(=O)N8C[C@H](O)C[C@H]8C(=O)NCC(=O)N[C@@H](Cc8cccs8)C(=O)N[C@@H](CO)C(=O)N8Cc9ccccc9C[C@@H]8C(=O)N(CC(=O)N[C@@H](CCCNC(=N)N)C(=O)O)C8CCCCC8)cc7)cc6)c4O[C@H]2[C@@H](O)C=C[C@H]3[C@H]1C5 [CP 836]	1.26	
CN1CC[C@]23c4c5ccc(OCCCCCCCCCCCC(=O)NCCCC[C@H](NC(=O)CNC(=O)[C@@H]6C[C@@H](O)CN6C(=O)[C@@H]6CCCN6C(=O)[C@H](CCCNC(=N)N)NC(=O)[C@H](N)CCCNC(=N)N)C(=O)N[C@@H](CO)C(=O)N6Cc7ccccc7C[C@@H]6C(=O)N(CC(=O)N[C@@H](CCCNC(=N)N)C(=O)O)C6CCCCC6)c4O[C@H]2[C@@H](O)CC[C@H]3[C@H]1C5 [CP 831] (H-[dR]RP[Hyp]GK(X21)S[dTic][Gly(N-cHex)]R-OH)	126	
CN1CC[C@]23c4c5ccc(O)c4O[C@H]2[C@@H](OCCCc2ccc(C(=O)N[C@H](CCCNC(=N)N)C(=O)N[C@@H](CCCNC(=N)N)C(=O)N4CCC[C@H]4C(=O)N4C[C@H](O)C[C@H]4C(=O)NCC(=O)N[C@@H](Cc4cccs4)C(=O)N[C@@H](CO)C(=O)N4Cc6ccccc6C[C@@H]4C(=O)N(CC(=O)N[C@@H](CCCNC(=N)N)C(=O)O)C4CCCCC4)cc2)C=C[C@H]3[C@H]1C5 [CP 905]	0.501	
CN1CC[C@]23c4c5ccc(O)c4O[C@H]2[C@@H](OCCCCCCCCCCCC(=O)N[C@H](CCCNC(=N)N)C(=O)N[C@@H](CCCNC(=N)N)C(=O)N2CCC[C@H]2C(=O)N2C[C@H](O)C[C@H]2C(=O)NCC(=O)N[C@@H](Cc2cccs2)C(=O)N[C@@H](CO)C(=O)N2Cc4ccccc4C[C@@H]2C(=O)N(CC(=O)N[C@@H](CCCNC(=N)N)C(=O)O)C2CCCCC2)CC[C@H]3[C@H]1C5 [CP 896]	2	
CN1CC[C@]23c4c5ccc(OCCCCCCCCCCCC(=O)NCCCC[C@H](NC(=O)[C@H](N)CCCNC(=N)N)C(=O)N6CCC[C@H]6C(=O)N6C[C@H](O)C[C@H]6C(=O)NCC(=O)N[C@@H](Cc6cccs6)C(=O)N[C@@H](CO)C(=O)N6Cc7ccccc7C[C@@H]6C(=O)N(CC(=O)N[C@@H](CCCNC(=N)N)C(=O)O)C6CCCCC6)c4O[C@H]2[C@@H](O)CC[C@H]3[C@H]1C5 [CP 723] (H-[dR]K(X21)P[Hyp]G[2Thi]S[dTic][Gly(N-cHex)]R-OH)	0.398	
D-Arg-Arg-Pro-Hyp-Gly-Thi-Ser-D-Tic-NChg-Arg [CP-0597]		effect on first and second phase responses (paw licking time) [2]: no significant effect; Percentage inhibition of the carrageenan paw edema, 3 h [3]: 66.3; Percentage inhibition of the carrageenan paw edema, 6 h [3]: 0; effect on carrageenan edema response ([3]; sc): significant inhibition from 0-3 h; effect on mustard oil edema response (Evan's blue dye) [4]: without effect; duration of action against blood pressure responses to bradykinin [5]: greater than 6 h
